Experimental data published in ChEMBL document CHEMBL4390686, “Design, Synthesis, and Pharmacokinetic Evaluation of Phosphate and Amino Acid Ester Prodrugs for Improving the Oral Bioavailability of the HIV-1 Protease Inhibitor Atazanavir” (J Med Chem, 2019).
Values after ≈ are worked out from the molar mass of the structure shown.

Experiments:
physchem [1] = details: 30% CH3CN/HCl buffer, pH 1
Description: Half life in pH 1 30%CH3CN/HCl buffer at 50 mM by RP-UPLC analysis

[2] = rat, in vivo, po, 3 mg/kg
Description: AUClast in cannulated Sprague-Dawley rat assessed as atazanavir level at 3 mg/kg equiv of atazanavir administered orally by UPLC/MS/MS analysis

physchem [3] = details: 30% CH3CN/acetate buffer, pH 4
Description: Half life in pH 4 30%CH3CN/acetate buffer at 50 mM by RP-UPLC analysis

[4] = Ratio of test compound to atazanavir aqueous solubility in pH 6.5 phosphate buffer by RP-UPLC analysis; type: physicochemical
physchem [5] = details: phosphate buffer, pH 6.5
Description: Aqueous solubility of the compound in pH 6.5 phosphate buffer by RP-UPLC analysis

physchem [6] = details: 30% CH3CN/phosphate buffer, pH 6.5
Description: Half life in pH 6.5 30%CH3CN/phosphate buffer at 50 mM by RP-UPLC analysis

physchem [7] = details: HCl buffer, pH 1
Description: Aqueous solubility of the compound in pH 1 HCl buffer by RP-UPLC analysis

[8] = rat, in vivo, po, 3 mg/kg; remark: listed apart in the source
[9] = rat, in vivo, po, 3 mg/kg; remark: listed apart in the source
physchem [10] = details: acetate buffer, pH 4
Description: Aqueous solubility of the compound in pH 4 acetate buffer by RP-UPLC analysis

[11] = Half life in pH 2 30%CH3CN solution at 50 mM by RP-UPLC analysis; type: physicochemical
[12] = Prodrug conversion assessed as recombinant rat intestinal alkaline phosphatase-mediated compound dephosphorylation by measuring half life by UPLC-MS/MS analysis; type: ADME
[13] = Prodrug conversion in cannulated Sprague-Dawley rat plasma assessed as atazanavir formation at 3 mg/kg equiv of atazanavir administered orally by UPLC/MS/MS analysis; type: ADME, organism-based; details: in vivo, po
[14] = Prodrug conversion assessed as recombinant human intestinal alkaline phosphatase-mediated compound dephosphorylation by measuring half life by UPLC-MS/MS analysis; type: ADME; details: isolated protein
physchem [15] = details: 30% CH3CN/phosphate buffer, pH 7.4
Description: Half life in pH 7.4 30%CH3CN/phosphate buffer at 50 mM by RP-UPLC analysis

in vitro [16] = details: human, Caco-2
Description: Efflux ratio of apparent permeability across basolateral to apical side over apical to basolateral side in human Caco2 cells

in vitro [17] = details: human, Caco-2; remark: listed apart in the source
Description: Apparent permeability across basolateral to apical side in human Caco2 cells at 2 uM

in vitro [18] = details: human, Caco-2; remark: listed apart in the source
Description: Apparent permeability across apical to basolateral side in human Caco2 cells at 2 uM

physchem [19] = details: phosphate buffer, pH 7.4
Description: Aqueous solubility of the compound in pH 7.4 phosphate buffer by RP-UPLC analysis

Protease = Protease (Human immunodeficiency virus 1, UniProt Q9YQ12)
Description: Inhibition of HIV1 protease activity

[20] = system: Human immunodeficiency virus 1
Description: Antiviral activity against HIV1 NL4-3 infected in human MT2 cells assessed as reduction in viral yield measured after 4 days by EnduRen live cell substrate based luciferase reporter gene assay

[21] = Prodrug conversion assessed as calf intestinal alkaline phosphatase-mediated compound dephosphorylation by UPLC-MS/MS analysis; type: ADME, Bos taurus; details: cattle, isolated protein
[22] = Drug recovery in mesenteric vein plasma of closed loop rat intestinal model at 1 mg/kg administered as cassette dose by LC/MS analysis; type: ADME, organism-based; details: in vivo
[23] = Drug recovery in intestinal content of closed loop rat intestinal model at 1 mg/kg administered as cassette dose by LC/MS analysis; type: ADME, organism-based; details: in vivo
[24] = Drug recovery in intestinal homogenates of closed loop rat intestinal model at 1 mg/kg administered as cassette dose by LC/MS analysis; type: ADME, organism-based, Intestine; details: intestinal homogenate, other: closed loop intestinal model, read-out: Drug recovery
[25] = Prodrug conversion assessed as calf intestinal alkaline phosphatase-mediated compound dephosphorylation by measuring half life by UPLC-MS/MS analysis; type: ADME, Bos taurus; details: cattle, isolated protein
[26] = Cmin in cannulated Sprague-Dawley rat assessed as atazanavir level at 3 mg/kg equiv of atazanavir administered orally measured after 24 hrs by UPLC/MS/MS analysis; type: ADME, organism-based; details: in vivo, po, read-out: Cmin
[27] = Stability in pH 6.5 30%CH3CN/phosphate buffer assessed as parent compound remaining at 50 mM measured after 2 mins by RP-UPLC analysis; type: physicochemical; details: read-out: Stability
[28] = Cmin in cannulated Sprague-Dawley rat assessed as atazanavir level at 30 mg/kg equiv of atazanavir administered orally measured after 24 hrs by UPLC/MS/MS analysis; type: ADME, organism-based; details: in vivo, po, read-out: Cmin
[29] = Tmax in cannulated Sprague-Dawley rat assessed as atazanavir level at 30 mg/kg equiv of atazanavir administered orally by UPLC/MS/MS analysis; type: ADME, organism-based; details: in vivo, po
[30] = Stability in pH 6.5 30%CH3CN/phosphate buffer assessed as parent compound remaining at 50 mM measured after 30 mins by RP-UPLC analysis; type: physicochemical; details: read-out: Stability
[31] = Cmin in cannulated Sprague-Dawley rat at 30 mg/kg equiv of atazanavir administered orally measured after 24 hrs by UPLC/MS/MS analysis; type: ADME, organism-based; details: in vivo, po, BLD = below limit of detection
[32] = Cmin in cannulated Sprague-Dawley rat at 3 mg/kg equiv of atazanavir administered orally measured after 24 hrs by UPLC/MS/MS analysis; type: ADME, organism-based; details: in vivo, po, BLD = below limit of detection
[33] = Cmax in cannulated Sprague-Dawley rat assessed as atazanavir level at 30 mg/kg equiv of atazanavir administered orally by UPLC/MS/MS analysis; type: ADME, organism-based; design: dose 30 mg/kg, route oral; details: in vivo, po
[34] = AUClast in cannulated Sprague-Dawley rat assessed as atazanavir level at 30 mg/kg equiv of atazanavir administered orally by UPLC/MS/MS analysis; type: ADME, organism-based; design: dose 30 mg/kg, route oral, time 0 - last; details: in vivo, po

Sequence of Protease (Q9YQ12 whole entry): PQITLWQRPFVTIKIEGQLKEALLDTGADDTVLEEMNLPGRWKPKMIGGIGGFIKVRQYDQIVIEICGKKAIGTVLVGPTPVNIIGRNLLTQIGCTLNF

Structure (SMILES)	half-life at 50000 µM (physchem [1])	AUClast [2]	half-life at 50000 µM (physchem [3])	solubility (physchem [5])	half-life at 50000 µM (physchem [6])	solubility (physchem [7])	Tmax [8]	Cmax [9]	solubility (physchem [10])	Drug metabolism [13]	efflux ratio (in vitro [16])	Papp B→A at 2 µM (in vitro [17])	Papp A→B at 2 µM (in vitro [18])	other results
COC(=O)N[C@H](C(=O)N[C@@H](Cc1ccccc1)[C@H](CN(Cc1ccc(-c2ccccn2)cc1)NC(=O)[C@@H](NC(=O)OC)C(C)(C)C)OC(=O)CNC(=O)[C@@H](N)Cc1ccccc1)C(C)(C)C	> 500 h	0.016 µM·h	> 500 h	> 640 µg/mL	73.4 h	> 2900 µg/mL	0.4 h	9 nM	> 3500 µg/mL	–	–	–	–	Ratio [4]: > 200
COC(=O)N[C@H](C(=O)N[C@@H](Cc1ccccc1)[C@H](CN(Cc1ccc(-c2ccccn2)cc1)NC(=O)[C@@H](NC(=O)OC)C(C)(C)C)OC(=O)CNC(=O)[C@H](N)Cc1ccccc1)C(C)(C)C	> 500 h	0.307 µM·h	> 500 h	230 µg/mL (≈ 253 µM)	88.5 h	> 2100 µg/mL	0.5 h	51 nM	> 2300 µg/mL	–	–	–	–	Ratio [4]: > 200
COC(=O)N[C@H](C(=O)N[C@@H](Cc1ccccc1)[C@H](CN(Cc1ccc(-c2ccccn2)cc1)NC(=O)[C@@H](NC(=O)OC)C(C)(C)C)OCOP(=O)([O-])[O-])C(C)(C)C.[Na+].[Na+]	0.2 h	0.277 µM·h	> 500 h	> 1060 µg/mL	> 500 h	–	0.25 h	257 nM	> 930 µg/mL	Metabolite_Detected	–	–	–	half-life at 50000 µM [11]: 1.95 h; t1/2 [12]: > 0.167 h; t1/2 [14]: 0.35 h
COC(=O)N[C@H](C(=O)N[C@@H](Cc1ccccc1)[C@H](CN(Cc1ccc(-c2ccccn2)cc1)NC(=O)[C@@H](NC(=O)OC)C(C)(C)C)OC(=O)[C@@H](N)Cc1ccc(O)cc1)C(C)(C)C	> 500 h	0.103 µM·h	376 h	–	–	> 980 µg/mL	0.4 h	99 nM	> 1420 µg/mL	–	> 4.7	7.1 ×10⁻⁶ cm/s	< 1.5 ×10⁻⁶ cm/s	half-life at 50000 µM (physchem [15]): 215 h; solubility (physchem [19]): 9 µg/mL (≈ 10.4 µM)
COC(=O)N[C@H](C(=O)N[C@@H](Cc1ccccc1)[C@H](CN(Cc1ccc(-c2ccccn2)cc1)NC(=O)[C@@H](NC(=O)OC)C(C)(C)C)OC(=O)CN(C)C)C(C)(C)C	> 500 h	0.0457 µM·h	> 500 h	–	–	> 1400 µg/mL	0.3 h	66.8 nM	> 1700 µg/mL	–	> 8.8	13.2 ×10⁻⁶ cm/s	< 1.5 ×10⁻⁶ cm/s	IC50 (Protease): 4 to 1140 nM; EC50 [20]: 0.9 to 1250 nM; half-life at 50000 µM (physchem [15]): 188 h; solubility (physchem [19]): 360 µg/mL (≈ 456 µM)
COC(=O)N[C@H](C(=O)N[C@@H](Cc1ccccc1)[C@H](CN(Cc1ccc(-c2ccccn2)cc1)NC(=O)[C@@H](NC(=O)OC)C(C)(C)C)OC(=O)CNCc1ccccc1)C(C)(C)C	> 500 h	0.1 µM·h	> 500 h	< 1 µg/mL	334 h	> 990 µg/mL	0.6 h	55 nM	> 710 µg/mL	–	> 6.4	9.6 ×10⁻⁶ cm/s	< 1.5 ×10⁻⁶ cm/s	–
Cc1cccc(C)c1OCC(=O)N[C@@H](Cc1ccccc1)[C@H](C[C@H](Cc1ccccc1)NC(=O)[C@H](C(C)C)N1CCCNC1=O)OP(=O)(O)O	–	–	–	–	–	–	–	–	–	Metabolite_Notdetected	–	–	–	Drug metabolism [21]: Metabolite_Notdetected
CC(C)(C)NCC(O)COc1cccc2c1CC(O)C(O)C2 (stereo unspecified) [NADOLOL]	–	–	–	–	–	–	–	–	–	–	–	–	–	Drug recovery [22]: 1.3%; Drug recovery [23]: 45%; recovery [24]: 14%
CC(C)CN(C[C@@H](OP(=O)(O)O)[C@H](Cc1ccccc1)NC(=O)O[C@H]1CCOC1)S(=O)(=O)c1ccc(N)cc1 [FOSAMPRENAVIR]	–	–	–	–	–	–	–	–	–	Metabolite_Notdetected	–	–	–	Drug metabolism [21]: Metabolite_Notdetected
COC(=O)N[C@H](C(=O)N[C@@H](Cc1ccccc1)[C@H](CN(Cc1ccc(-c2ccccn2)cc1)NC(=O)[C@@H](NC(=O)OC)C(C)(C)C)OP(=O)(O)O)C(C)(C)C	334 h	–	334 h	> 2870 µg/mL	250 h	> 2650 µg/mL	–	–	250 µg/mL (≈ 319 µM)	Metabolite_Notdetected	–	–	–	t1/2 [12]: > 2 h; t1/2 [14]: > 2 h
Cc1cccc(C)c1OCC(=O)N[C@@H](Cc1ccccc1)[C@@H](O)C[C@H](Cc1ccccc1)NC(=O)[C@H](C(C)C)N1CCCNC1=O [LOPINAVIR]	–	–	–	–	–	–	–	–	–	Metabolite_Detected	–	–	–	t1/2 [25]: 0.22 h
COC(=O)N[C@H](C(=O)N[C@@H](Cc1ccccc1)[C@H](CN(Cc1ccc(-c2ccccn2)cc1)NC(=O)[C@@H](NC(=O)OC)C(C)(C)C)OC(=O)CN(C)C(=O)[C@@H](N)Cc1ccccc1)C(C)(C)C.Cl.Cl	> 500 h	1.533 µM·h	9.03 h	–	0.08 h	1170 µg/mL	1 h	794 nM	–	–	–	–	–	concentration [26]: 1.9 nM; remaining at 2 min, 50000 µM [27]: 86.1%; concentration [28]: 30.4 nM; Tmax [29]: 1 h; remaining at 0.5 h, 50000 µM [30]: 2%; Cmin [31]: Bld; Cmin [32]: Bld; Cmax [33]: 8760 nM; AUClast [34]: 16.58 µM·h
COC(=O)N[C@H](C(=O)N[C@@H](Cc1ccccc1)[C@H](CN(Cc1ccc(-c2ccccn2)cc1)NC(=O)[C@@H](NC(=O)OC)C(C)(C)C)OC(=O)[C@@H](N)Cc1ccc(F)cc1)C(C)(C)C	> 500 h	0.463 µM·h	> 500 h	–	–	> 1380 µg/mL	0.5 h	305 nM	> 980 µg/mL	–	> 5.5	8.2 ×10⁻⁶ cm/s	< 1.5 ×10⁻⁶ cm/s	half-life at 50000 µM (physchem [15]): 334 h; solubility (physchem [19]): < 1 µg/mL
